Data reported in ChEMBL document CHEMBL1201862, “PubChem BioAssay data set” (2004).
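Method: 48-hour compound exposure of cells in 96-well plates, five concentrations, linear interpolation of endpoints. At the GI50, growth is halved.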 Activity calls are given as the source filed them. No stated cut-off is given here; in the data, active = GI50 up to about 1.1 µM and inactive = higher. Starred links: 1 amine or outer side, 2 acyl side, 3 side chain; linkers in the order of their positions; H or OH if unused. Non-standard residues stand in square brackets, D forms with d. Residues, ends and D or L forms follow the SMILES beside them. *: point of attachment. X47 = CCC(=O)CC1CC(C)CC(C(=O)[*:2])N1[*:1]; X46 = CCCCCCCCC(C)C(=O)*; Aib = CC(C)(N)C(=O)O; X48 = CC(CN(C)CCO)N*

What was measured:
Assay in all cases: NCI-60 cell line screen, 48 h
NCI-H23 = test system: NCI-H23
DLD-1 = test system: DLD-1
HCC 2998 = test system: HCC 2998
HOP-92 = test system: HOP-92
SR = test system: SR
OVCAR-8 = test system: OVCAR-8
SNB-75 = test system: SNB-75
786-0 = test system: 786-0
SNB-78 = test system: SNB-78
SF-295 = test system: SF-295
M19-MEL = test system: M19-MEL
MCF7 = test system: MCF7
BT-549 = test system: BT-549
Hs-578T = test system: Hs-578T
CAKI-1 = test system: CAKI-1
MDA-MB-435 = test system: MDA-MB-435
A498 = test system: A498
PC-3 = test system: PC-3
DU-145 = test system: DU-145
DMS-114 = test system: DMS-114

Measured: GI50

Oc1cc(-c2ccccn2)nc2cc(F)ccc12
inactive: NCI-H23 > 100 µM | DLD-1 81.8 µM | HCC 2998 > 100 µM | HOP-92 48.2 µM | SR 18.9 µM | OVCAR-8 > 100 µM | SNB-75 26.5 µM | 786-0 > 100 µM | SNB-78 > 100 µM | SF-295 > 100 µM | M19-MEL 56.6 µM

OC1(C(O)(c2ccc(-c3ccccc3)cc2)c2ccc(-c3ccccc3)cc2)CCCCC1
inactive: NCI-H23 > 100 µM | MCF7 96.8 µM | BT-549 > 100 µM | Hs-578T > 100 µM | HCC 2998 85.3 µM | HOP-92 > 100 µM | CAKI-1 > 100 µM | SR 28.6 µM | OVCAR-8 > 100 µM | SNB-75 > 100 µM | MDA-MB-435 > 100 µM | 786-0 > 100 µM | A498 > 100 µM | SF-295 > 100 µM | PC-3 > 100 µM | DU-145 > 100 µM

CCCCCCCCCCCCCCCCCCNc1ccn(C2OC(COP(=O)(O)OCC3OC(n4ccc(N)nc4=O)C(O)C3O)C(O)C2O)c(=O)n1 (configuration not stated)
inactive: NCI-H23 27.5 µM | MCF7 45.2 µM | BT-549 > 49.5 µM | Hs-578T > 100 µM | HCC 2998 38.2 µM | HOP-92 > 51.3 µM | CAKI-1 67.6 µM | SR > 37.6 µM | OVCAR-8 20 µM | SNB-75 > 100 µM | MDA-MB-435 > 73.1 µM | 786-0 44.7 µM | A498 > 100 µM | SF-295 > 100 µM | PC-3 39.8 µM | DU-145 44.2 µM

Oc1ccc(/C=N/c2ccccc2O)cc1
inactive: NCI-H23 30.3 µM | MCF7 27.4 µM | BT-549 67.8 µM | Hs-578T 37.2 µM | HCC 2998 45.3 µM | HOP-92 > 100 µM | CAKI-1 68.1 µM | SR 48.6 µM | OVCAR-8 39.4 µM | SNB-75 > 100 µM | MDA-MB-435 16.9 µM | 786-0 23.3 µM | A498 > 100 µM | SF-295 52.2 µM | PC-3 34.1 µM | DU-145 17 µM

C=CC(C)CCC(C/C=C(\C)CCCC(C)C)C(=C)CCCC(C)C (configuration not stated)
inactive: NCI-H23 > 100 µM | MCF7 > 100 µM | BT-549 > 100 µM | Hs-578T > 100 µM | HCC 2998 > 100 µM | HOP-92 > 100 µM | CAKI-1 > 100 µM | SR > 100 µM | OVCAR-8 > 100 µM | SNB-75 > 100 µM | MDA-MB-435 > 100 µM | 786-0 > 100 µM | A498 > 100 µM | SF-295 > 100 µM | PC-3 > 100 µM | DU-145 > 100 µM

CC(=O)NNc1nc(C)c(C(/C=C/c2ccc(Cl)cc2)=N\NS(=O)(=O)c2ccc(C)cc2)s1
inactive: NCI-H23 > 100 µM | DLD-1 > 100 µM | HCC 2998 > 100 µM | HOP-92 > 100 µM | CAKI-1 > 100 µM | OVCAR-8 > 100 µM | SNB-75 > 100 µM | 786-0 > 100 µM | A498 > 100 µM | SNB-78 > 100 µM | SF-295 > 100 µM | M19-MEL > 100 µM

CC(C)(C)O/N=C/c1cc(NC(=S)c2ccsc2)ccc1Cl
inactive: NCI-H23 7.41 µM | MCF7 11.2 µM | BT-549 13.9 µM | Hs-578T 23.3 µM | HCC 2998 14.5 µM | HOP-92 19.1 µM | CAKI-1 16.6 µM | SR 3.36 µM | OVCAR-8 13.1 µM | SNB-75 23.6 µM | MDA-MB-435 14.6 µM | 786-0 16.2 µM | A498 10.5 µM | SF-295 11.6 µM | PC-3 13 µM | DU-145 5.37 µM

COc1ccc(N2C(=O)[C@@H]3[C@H](C2=O)c2[nH]c4ccccc4c2C2CCC(C(C)(C)C)C[C@@H]23)cc1 (some centres not stated)
inactive: NCI-H23 22.4 µM | DLD-1 37.7 µM | HCC 2998 29.5 µM | CAKI-1 27.7 µM | OVCAR-8 18 µM | SNB-75 15.9 µM | 786-0 14.9 µM | A498 26 µM | SNB-78 23.7 µM | SF-295 12.3 µM | M19-MEL 46.9 µM

CCOC(=O)CCc1c(C)c2c(OC)cc(OC)cc2oc1=O
inactive: NCI-H23 > 100 µM | DLD-1 91.6 µM | HCC 2998 > 100 µM | HOP-92 22.3 µM | CAKI-1 72.3 µM | OVCAR-8 > 100 µM | SNB-75 21.5 µM | 786-0 34.1 µM | SNB-78 > 100 µM | SF-295 > 100 µM | M19-MEL > 100 µM

COc1c(CCl)cc(-c2cc(=O)c3ccccc3s2)cc1CCl
active: HOP-92 0.0449 µM | 786-0 0.65 µM
inactive: NCI-H23 18.9 µM | MCF7 1.91 µM | BT-549 36.6 µM | Hs-578T 9.57 µM | HCC 2998 2.29 µM | CAKI-1 7.62 µM | SR 3.18 µM | OVCAR-8 15 µM | SNB-75 6.78 µM | MDA-MB-435 > 100 µM | A498 20.4 µM | SF-295 11.9 µM | PC-3 > 100 µM | DU-145 > 100 µM

O=C(c1ccccc1)c1c(CC(O)c2ccccc2)n(C(=O)c2ccccc2)c2ccccc12 (configuration not stated)
inactive: NCI-H23 19 µM | DLD-1 40.9 µM | HCC 2998 42.1 µM | DMS-114 28 µM | HOP-92 29.7 µM | CAKI-1 55.7 µM | SR 16.9 µM | OVCAR-8 57.7 µM | SNB-75 6.97 µM | 786-0 > 100 µM | SF-295 28.8 µM | M19-MEL 59 µM

CO[C@H]1C[C@H](O[C@H]2CC[C@@]3(C)[C@H](CC[C@@H]4[C@@H]3CC[C@]3(C)[C@@H](C5=CC(=O)OC5)CC[C@]43O)C2)O[C@H](C)[C@H]1O
active: NCI-H23 < 0.01 µM | MCF7 < 0.01 µM | BT-549 < 0.01 µM | Hs-578T < 0.01 µM | HCC 2998 0.015 µM | HOP-92 < 0.01 µM | CAKI-1 < 0.01 µM | SR < 0.01 µM | OVCAR-8 < 0.01 µM | SNB-75 < 0.0134 µM | MDA-MB-435 < 0.0111 µM | 786-0 < 0.01 µM | A498 0.0113 µM | SF-295 < 0.01 µM | PC-3 < 0.01 µM | DU-145 < 0.01 µM

CCCCCCCCCCCCOCCCOP(=O)([O-])OCC[N+](C)(C)C
inactive: NCI-H23 67.6 µM | MCF7 45.2 µM | BT-549 9.04 µM | DLD-1 27.9 µM | Hs-578T 22.4 µM | HCC 2998 7.4 µM | HOP-92 19.4 µM | CAKI-1 13.2 µM | SR 11.9 µM | OVCAR-8 47.8 µM | SNB-75 24.9 µM | MDA-MB-435 23.9 µM | 786-0 10.8 µM | A498 30 µM | SNB-78 25.2 µM | SF-295 35.5 µM | PC-3 2.18 µM | M19-MEL 28.2 µM | DU-145 34.3 µM

O=C(O)c1nc(-c2ccc(Cl)c(Cl)c2)nc2ccc(Cl)cc12
inactive: NCI-H23 38.3 µM | DLD-1 > 100 µM | HCC 2998 > 100 µM | CAKI-1 73.1 µM | SR 64.4 µM | OVCAR-8 70.6 µM | SNB-75 13.6 µM | 786-0 48.4 µM | A498 > 100 µM | SNB-78 27.9 µM | SF-295 45.9 µM | M19-MEL > 100 µM

COC(=O)[C@]1(C)CCC[C@@]2(C)C1CCC1=CC3(C(C)C)CCC12OO3 (some centres not stated)
inactive: NCI-H23 77.1 µM | DLD-1 50.1 µM | HCC 2998 88.5 µM | CAKI-1 80.5 µM | SR 27.9 µM | OVCAR-8 63.8 µM | 786-0 85.3 µM | A498 18.7 µM | SNB-78 51.3 µM | SF-295 46.5 µM | M19-MEL 32.2 µM

O=[N+]([O-])C1C2C=CC(C2)[C@H]1c1ccc(Cl)cc1Cl (some centres not stated)
inactive: NCI-H23 36.7 µM | DLD-1 20.3 µM | HCC 2998 75.5 µM | HOP-92 23.3 µM | CAKI-1 > 10 µM | SR 35.7 µM | OVCAR-8 57.1 µM | SNB-75 11.4 µM | 786-0 54.3 µM | A498 55 µM | SNB-78 48.4 µM | SF-295 24.8 µM | M19-MEL 34.8 µM

CSc1ccc2c(cc1=O)[C@@H](NC(=O)c1cccc([N+](=O)[O-])c1)CCc1cc(O)c(O)c(O)c1-2
inactive: NCI-H23 33 µM | DLD-1 43.8 µM | HCC 2998 92.7 µM | DMS-114 24.4 µM | HOP-92 > 100 µM | CAKI-1 67.3 µM | OVCAR-8 66.5 µM | SNB-75 25.1 µM | 786-0 61.2 µM | A498 27.7 µM | SF-295 42.4 µM | M19-MEL 22.1 µM

CCCCCCCCC(C)C(=O)N1CCCC1C(=O)N1C(CC(=O)CC)CC(C)CC1C(=O)NC(C)C(=O)NC(C)(C)C(=O)NC(C)(C)C(=O)NC(C(=O)NC(C)C(=O)NC(C)(C)C(=O)NC(C)(C)C(=O)NC(C)CN(C)CCO)C(C)CC (configuration not stated) (X46-P[X47]A[Aib][Aib]IA[Aib][Aib]-X48; configuration not given here)
inactive: BT-549 1.57 µM | MDA-MB-435 1.41 µM | A498 2 µM
active: NCI-H23 < 0.01 µM | MCF7 < 0.01 µM | Hs-578T 0.168 µM | HCC 2998 0.0385 µM | HOP-92 < 0.01 µM | CAKI-1 0.818 µM | SR 0.0294 µM | OVCAR-8 < 0.01 µM | SNB-75 0.382 µM | 786-0 0.106 µM | SF-295 < 0.01 µM | PC-3 0.0103 µM | DU-145 0.0847 µM
